In article PMC3961306, “Comparison of the Cancer Gene Targeting and Biochemical Selectivities of All Targeted Kinase Inhibitors Approved for Clinical Use” (PLoS ONE, 2014):
Read-outs that look alike come from different tables or passages of the source.

Tests used:
Test in all cases: Kinase profiling in a biochemical assay panel (mobility shift assays and ELISA), %-inhibition at 1 μM; selectivity entropy
[1] = target: panel of more than 300 wild-type and mutant kinases (313 kinase panel) (Homo sapiens, UniProt Q13131)
[2] = target: panel of more than 300 wild-type and mutant kinases (313 kinase panel) (Homo sapiens, UniProt Q04912)
[3] = target: panel of more than 300 wild-type and mutant kinases (313 kinase panel) (Homo sapiens, UniProt P17948)
[4] = target: T1, panel of more than 300 wild-type and mutant kinases (313 kinase panel) (Homo sapiens, UniProt Q9NWZ3)
T1 sequence (Q9NWZ3 1-460): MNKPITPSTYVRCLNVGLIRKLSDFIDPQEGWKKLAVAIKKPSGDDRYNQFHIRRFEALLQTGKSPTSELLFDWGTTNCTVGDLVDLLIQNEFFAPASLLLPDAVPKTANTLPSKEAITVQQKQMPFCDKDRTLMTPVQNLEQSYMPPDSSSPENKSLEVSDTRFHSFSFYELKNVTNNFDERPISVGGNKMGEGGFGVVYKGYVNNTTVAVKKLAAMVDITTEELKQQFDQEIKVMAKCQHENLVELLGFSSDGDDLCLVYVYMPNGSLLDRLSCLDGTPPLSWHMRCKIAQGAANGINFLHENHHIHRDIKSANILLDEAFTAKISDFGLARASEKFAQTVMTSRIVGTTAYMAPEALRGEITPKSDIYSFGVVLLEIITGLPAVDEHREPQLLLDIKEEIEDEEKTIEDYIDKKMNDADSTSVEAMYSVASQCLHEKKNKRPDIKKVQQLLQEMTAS

[5] = target: panel of more than 300 wild-type and mutant kinases (313 kinase panel) (Homo sapiens, UniProt Q9Y463)
[6] = target: T2, panel of more than 300 wild-type and mutant kinases (313 kinase panel) (Homo sapiens, UniProt P21709)
T2 sequence (P21709 26-976): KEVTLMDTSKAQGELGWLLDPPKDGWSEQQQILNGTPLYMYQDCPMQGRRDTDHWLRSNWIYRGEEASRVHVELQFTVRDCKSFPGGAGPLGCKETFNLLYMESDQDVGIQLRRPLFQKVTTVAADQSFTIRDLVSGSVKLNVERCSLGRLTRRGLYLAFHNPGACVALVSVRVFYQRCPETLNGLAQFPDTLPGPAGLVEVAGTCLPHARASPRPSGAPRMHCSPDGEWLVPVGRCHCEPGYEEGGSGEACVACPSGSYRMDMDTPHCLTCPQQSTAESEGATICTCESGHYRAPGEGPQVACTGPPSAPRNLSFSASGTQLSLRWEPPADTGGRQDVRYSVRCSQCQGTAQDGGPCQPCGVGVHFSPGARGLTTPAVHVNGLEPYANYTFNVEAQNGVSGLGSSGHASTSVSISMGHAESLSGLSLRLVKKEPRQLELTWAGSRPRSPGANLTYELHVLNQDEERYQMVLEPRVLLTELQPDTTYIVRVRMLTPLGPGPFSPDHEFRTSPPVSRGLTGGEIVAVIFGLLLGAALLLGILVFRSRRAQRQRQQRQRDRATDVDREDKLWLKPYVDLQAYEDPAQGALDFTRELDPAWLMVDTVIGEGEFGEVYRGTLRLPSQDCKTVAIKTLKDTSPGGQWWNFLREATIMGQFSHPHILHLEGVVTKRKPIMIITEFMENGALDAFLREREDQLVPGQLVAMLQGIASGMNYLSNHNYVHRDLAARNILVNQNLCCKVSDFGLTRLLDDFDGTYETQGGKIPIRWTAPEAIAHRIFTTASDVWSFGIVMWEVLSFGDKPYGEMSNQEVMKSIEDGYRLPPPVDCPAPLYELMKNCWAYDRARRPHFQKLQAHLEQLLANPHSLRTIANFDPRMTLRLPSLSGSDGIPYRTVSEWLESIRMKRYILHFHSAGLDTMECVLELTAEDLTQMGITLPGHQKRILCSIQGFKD

[7] = target: panel of more than 300 wild-type and mutant kinases (313 kinase panel) (Homo sapiens, UniProt P51812)
[8] = target: panel of more than 300 wild-type and mutant kinases (313 kinase panel) (Homo sapiens, UniProt P16234)
[9] = target: panel of more than 300 wild-type and mutant kinases (313 kinase panel) (Homo sapiens, UniProt Q13164)
[10] = target: panel of more than 300 wild-type and mutant kinases (313 kinase panel) (Homo sapiens, UniProt P04629)
[11] = target: panel of more than 300 wild-type and mutant kinases (313 kinase panel) (Homo sapiens, UniProt P54764)
[12] = target: panel of more than 300 wild-type and mutant kinases (313 kinase panel) (Homo sapiens, UniProt P07948)
[13] = target: panel of more than 300 wild-type and mutant kinases (313 kinase panel) (Homo sapiens, UniProt P07949)
[14] = kinase AMPKα1/β1/γ1, 1 μM compound
[15] = kinase DYRK1B, compound at 1 μM

Chain of panel of more than 300 wild-type and mutant kinases (313 kinase panel) (Homo sapiens, UniProt Q9Y463) (Q9Y463 whole entry, change not shown): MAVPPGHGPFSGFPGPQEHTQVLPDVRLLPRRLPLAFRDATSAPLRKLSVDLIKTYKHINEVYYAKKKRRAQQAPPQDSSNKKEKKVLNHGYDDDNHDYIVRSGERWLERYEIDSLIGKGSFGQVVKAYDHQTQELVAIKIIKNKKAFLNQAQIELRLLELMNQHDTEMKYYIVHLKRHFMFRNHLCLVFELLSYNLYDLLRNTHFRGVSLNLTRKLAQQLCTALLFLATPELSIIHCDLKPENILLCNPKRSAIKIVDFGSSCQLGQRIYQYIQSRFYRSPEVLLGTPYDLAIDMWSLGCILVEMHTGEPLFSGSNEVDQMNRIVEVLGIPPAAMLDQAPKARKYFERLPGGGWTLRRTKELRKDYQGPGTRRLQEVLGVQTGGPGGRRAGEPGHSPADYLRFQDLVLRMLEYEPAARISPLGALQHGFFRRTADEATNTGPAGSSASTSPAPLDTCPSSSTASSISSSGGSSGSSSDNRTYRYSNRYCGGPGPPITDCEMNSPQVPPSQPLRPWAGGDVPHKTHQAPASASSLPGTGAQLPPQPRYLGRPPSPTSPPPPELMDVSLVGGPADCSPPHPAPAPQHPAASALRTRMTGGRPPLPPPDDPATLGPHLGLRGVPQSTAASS
Chain of panel of more than 300 wild-type and mutant kinases (313 kinase panel) (Homo sapiens, UniProt P07949) (P07949 29-1114, change not shown): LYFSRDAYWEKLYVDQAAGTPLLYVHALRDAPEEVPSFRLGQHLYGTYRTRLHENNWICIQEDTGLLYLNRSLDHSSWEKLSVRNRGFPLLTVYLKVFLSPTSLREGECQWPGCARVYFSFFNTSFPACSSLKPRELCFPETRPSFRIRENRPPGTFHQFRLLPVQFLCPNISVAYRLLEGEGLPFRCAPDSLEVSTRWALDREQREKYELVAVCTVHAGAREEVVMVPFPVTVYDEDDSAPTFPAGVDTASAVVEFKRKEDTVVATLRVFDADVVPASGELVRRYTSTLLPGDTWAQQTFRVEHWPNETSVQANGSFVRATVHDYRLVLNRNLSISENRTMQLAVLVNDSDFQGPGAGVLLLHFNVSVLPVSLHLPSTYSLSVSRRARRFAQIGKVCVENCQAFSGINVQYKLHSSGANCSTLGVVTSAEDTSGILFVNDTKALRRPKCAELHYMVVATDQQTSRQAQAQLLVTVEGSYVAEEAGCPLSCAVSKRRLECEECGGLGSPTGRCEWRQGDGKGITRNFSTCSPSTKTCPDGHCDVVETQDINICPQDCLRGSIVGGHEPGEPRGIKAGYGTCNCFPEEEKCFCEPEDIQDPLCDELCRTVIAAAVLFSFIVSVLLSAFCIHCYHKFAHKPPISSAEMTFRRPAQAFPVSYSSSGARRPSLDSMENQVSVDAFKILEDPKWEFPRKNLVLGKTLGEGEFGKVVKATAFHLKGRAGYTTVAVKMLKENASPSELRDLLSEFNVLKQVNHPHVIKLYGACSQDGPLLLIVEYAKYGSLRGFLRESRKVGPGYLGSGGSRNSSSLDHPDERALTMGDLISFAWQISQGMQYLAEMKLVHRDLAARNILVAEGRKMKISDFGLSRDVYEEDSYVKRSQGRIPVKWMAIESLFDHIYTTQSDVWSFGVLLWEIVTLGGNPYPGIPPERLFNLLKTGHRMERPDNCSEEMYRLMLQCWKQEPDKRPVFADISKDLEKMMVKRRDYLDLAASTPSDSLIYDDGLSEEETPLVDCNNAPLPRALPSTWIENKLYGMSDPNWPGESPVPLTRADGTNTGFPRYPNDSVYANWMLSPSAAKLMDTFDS
Chain of panel of more than 300 wild-type and mutant kinases (313 kinase panel) (Homo sapiens, UniProt Q13131) (Q13131 whole entry, change not shown): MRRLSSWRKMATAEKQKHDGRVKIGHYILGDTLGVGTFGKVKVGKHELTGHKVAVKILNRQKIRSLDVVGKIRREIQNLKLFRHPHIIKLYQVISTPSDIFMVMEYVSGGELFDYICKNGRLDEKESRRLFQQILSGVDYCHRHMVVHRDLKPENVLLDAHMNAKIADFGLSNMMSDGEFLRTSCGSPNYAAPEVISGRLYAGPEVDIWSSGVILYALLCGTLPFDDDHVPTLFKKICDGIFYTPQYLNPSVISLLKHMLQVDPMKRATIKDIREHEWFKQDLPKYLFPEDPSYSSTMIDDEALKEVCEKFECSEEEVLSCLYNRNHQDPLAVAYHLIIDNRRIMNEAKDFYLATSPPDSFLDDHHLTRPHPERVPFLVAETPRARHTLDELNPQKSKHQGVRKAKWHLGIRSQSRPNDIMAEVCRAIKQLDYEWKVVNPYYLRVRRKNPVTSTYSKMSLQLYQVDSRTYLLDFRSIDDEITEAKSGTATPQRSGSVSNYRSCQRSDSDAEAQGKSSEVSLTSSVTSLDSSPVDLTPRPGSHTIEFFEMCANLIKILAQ
Chain of panel of more than 300 wild-type and mutant kinases (313 kinase panel) (Homo sapiens, UniProt P16234) (P16234 24-1089, change not shown): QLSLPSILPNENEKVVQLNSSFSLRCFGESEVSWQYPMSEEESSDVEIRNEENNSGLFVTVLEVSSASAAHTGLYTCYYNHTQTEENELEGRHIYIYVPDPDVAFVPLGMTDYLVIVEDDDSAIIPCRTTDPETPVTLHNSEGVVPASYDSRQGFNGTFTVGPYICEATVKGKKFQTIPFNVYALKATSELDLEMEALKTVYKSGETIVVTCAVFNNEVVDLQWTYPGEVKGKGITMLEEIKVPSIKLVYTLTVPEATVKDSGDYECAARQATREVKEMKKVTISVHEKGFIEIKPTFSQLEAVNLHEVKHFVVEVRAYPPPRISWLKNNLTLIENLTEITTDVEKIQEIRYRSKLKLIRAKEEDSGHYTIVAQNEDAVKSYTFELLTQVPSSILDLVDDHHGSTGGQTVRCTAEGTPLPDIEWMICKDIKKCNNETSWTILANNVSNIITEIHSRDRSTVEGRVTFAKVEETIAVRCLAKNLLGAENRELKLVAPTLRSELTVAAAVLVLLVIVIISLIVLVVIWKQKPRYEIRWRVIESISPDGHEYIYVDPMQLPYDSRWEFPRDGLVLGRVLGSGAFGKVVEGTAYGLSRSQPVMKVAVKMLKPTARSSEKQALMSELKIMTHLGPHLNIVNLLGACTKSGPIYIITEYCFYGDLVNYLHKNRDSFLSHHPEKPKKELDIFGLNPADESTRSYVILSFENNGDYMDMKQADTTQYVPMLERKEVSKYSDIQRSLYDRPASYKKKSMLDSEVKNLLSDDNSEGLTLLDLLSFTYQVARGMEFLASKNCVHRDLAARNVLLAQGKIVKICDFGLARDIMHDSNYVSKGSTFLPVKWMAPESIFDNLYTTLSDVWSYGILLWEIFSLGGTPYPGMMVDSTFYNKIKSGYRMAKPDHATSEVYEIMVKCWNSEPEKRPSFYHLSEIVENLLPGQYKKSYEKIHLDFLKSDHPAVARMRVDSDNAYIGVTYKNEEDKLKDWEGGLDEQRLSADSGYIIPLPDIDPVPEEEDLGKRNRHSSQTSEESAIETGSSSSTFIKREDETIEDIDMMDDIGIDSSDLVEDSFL
Chain of panel of more than 300 wild-type and mutant kinases (313 kinase panel) (Homo sapiens, UniProt P54764) (P54764 20-986, change not shown): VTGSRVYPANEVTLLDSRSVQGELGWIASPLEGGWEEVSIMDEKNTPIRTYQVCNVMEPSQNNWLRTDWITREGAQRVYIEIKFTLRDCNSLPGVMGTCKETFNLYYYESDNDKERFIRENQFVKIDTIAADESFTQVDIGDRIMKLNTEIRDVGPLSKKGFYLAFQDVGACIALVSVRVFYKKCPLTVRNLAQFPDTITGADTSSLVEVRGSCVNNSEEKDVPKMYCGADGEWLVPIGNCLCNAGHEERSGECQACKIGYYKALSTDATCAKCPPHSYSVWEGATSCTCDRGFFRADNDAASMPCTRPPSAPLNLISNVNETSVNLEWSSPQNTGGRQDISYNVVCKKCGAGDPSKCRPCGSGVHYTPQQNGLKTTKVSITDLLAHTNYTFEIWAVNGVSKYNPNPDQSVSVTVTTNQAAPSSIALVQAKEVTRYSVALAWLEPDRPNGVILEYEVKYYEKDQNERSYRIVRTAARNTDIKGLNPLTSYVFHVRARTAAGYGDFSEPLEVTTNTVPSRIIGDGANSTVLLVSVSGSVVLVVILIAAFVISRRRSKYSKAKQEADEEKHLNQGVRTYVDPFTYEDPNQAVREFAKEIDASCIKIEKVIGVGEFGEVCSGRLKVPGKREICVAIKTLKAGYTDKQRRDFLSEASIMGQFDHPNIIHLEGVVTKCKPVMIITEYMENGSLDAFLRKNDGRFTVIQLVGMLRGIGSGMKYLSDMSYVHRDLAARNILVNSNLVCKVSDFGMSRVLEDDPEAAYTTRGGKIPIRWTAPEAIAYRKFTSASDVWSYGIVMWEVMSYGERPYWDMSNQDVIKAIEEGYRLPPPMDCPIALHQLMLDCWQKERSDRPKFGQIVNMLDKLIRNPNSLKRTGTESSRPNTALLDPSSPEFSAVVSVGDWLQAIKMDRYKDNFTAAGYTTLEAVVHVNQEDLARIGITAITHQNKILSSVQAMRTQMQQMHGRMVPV

Structure (SMILES)	%-inhibition of RET ([13]; 1 µM)	%-inhibition, AMPKα1/β1/γ1 [1, 14]	%-inhibition of RON ([2]; kinase RON, 1 μM)	%-inhibition of FLT1 ([3]; kinase FLT1, compound at 1 μM)	%-inhibition of IRAK4 ([4]; kinase IRAK4, compound at 1 μM)	%-inhibition of DYRK1B [5, 15]	%-inhibition of EPHA1 ([6]; kinase EPHA1, compound at 1 μM)	%-inhibition of RSK2 ([7]; kinase RSK2, 1 μM)	%-inhibition of PDGFRα ([8]; kinase PDGFRα, 1 μM)	%-inhibition of Erk5 ([9]; kinase Erk5, compound at 1 μM)	%-inhibition of TRKA ([10]; kinase TRKA, 1 μM)	%-inhibition of EPHA4 ([11]; kinase EPHA4, compound at 1 μM)	%-inhibition of LYNa ([12]; kinase LYNa, compound at 1 μM)	further results
C#Cc1cccc(Nc2ncnc3cc(OCCOC)c(OCCOC)cc23)c1 [erlotinib]	70%													%-inhibition, AMPKα1/β1/γ1 ([1]; 1 µM): 2%; %-inhibition of RON ([2]; 1 µM): 8%; %-inhibition of FLT1 ([3]; 1 µM): 70%; %-inhibition of IRAK4 ([4]; 1 µM): 3%; %-inhibition of DYRK1B [5]: -28%; %-inhibition of EPHA1 ([6]; 1 µM): 28%; %-inhibition of RSK2 ([7]; 1 µM): 6.4%; %-inhibition of PDGFRα ([8]; 1 µM): 52%; %-inhibition of Erk5 ([9]; 1 µM): 21%; %-inhibition of TRKA ([10]; 1 µM): 14%; %-inhibition of EPHA4 ([11]; 1 µM): 32%; %-inhibition of LYNa ([12]; 1 µM): 64%
CNC(=O)c1cc(Oc2ccc(NC(=O)Nc3ccc(Cl)c(C(F)(F)F)c3)c(F)c2)ccn1 [regorafenib]	102%	-0.723%	3.5%	102%	1.07%	-7.4%	55%	6.66%	102%	16%	90%	92%	89%	
CO[C@H]1C[C@@H]2CC[C@@H](C)[C@@](O)(O2)C(=O)C(=O)N2CCCC[C@H]2C(=O)O[C@H]([C@H](C)C[C@@H]2CC[C@@H](OC(=O)C(C)(CO)CO)[C@H](OC)C2)CC(=O)[C@H](C)/C=C(\C)[C@@H](O)[C@@H](OC)C(=O)[C@H](C)C[C@H](C)/C=C/C=C/C=C/1C [temsirolimus]		-4.34%	-3%	-2%	-5.36%	-11%	-15%	-2.74%	3.45%	-5%	-3.53%	-4.51%	-4.48%	%-inhibition of RET ([13]; kinase RET, 1 μM): -3%
